pEC50: −log10 of the molar value. Structures can show the parent of a compound that is named as a salt.
How the values were obtained:
[1] = system: HeLa cells; assay: Arresting cells in mitosis (Mitotic Index, phosphorylated Histone H3 immunofluorescence); format: cell-based; details: HeLa cell line, 24 hours; for pEC50: Homo sapiens, Mitotic Index, read-out: EC50
Procedure: Assay to Measure the Effects of Compounds of the Invention on Arresting Cells in Mitosis
Inhibiting the ability of PLK1 to bind to its phosphopeptide binding partners through the PBD causes cells to arrest in mitosis. Experimentally, this is measured by assessing the number of cells which are in mitosis at a certain time after treatment with a PLK1-PBD inhibitor by immunofluorescent detection of phosphorylated Histone H3 (pH3), a marker which is only present in mitotic cells. PLK1-PBD inhibitors are expected to cause a dose-dependent increase in pH3-positive cells, which is reported as Mitotic Index (MI)—the percentage of cells which, at a given time, are positive for this mitotic mark. The following protocol has been used to measure MI: • 1. Plate HeLa cells at 10,000/well in 100 μL/well in clear flat-bottom 96-well plates and incubate overnight. • 2. Immediately prior to treatment, dilute compounds in medium in a 96-well round-bottom plate. Make up all compounds at 5 times final desired concentration on cells, and serially dilute 1:2 across the plate ensuring that there is 100 μL of each concentration (start with 200 μl of the top concentration on the left of the plate). […] Treat cells by adding 25 μL from the compound dilution plate to triplicate wells. • 4. Incubate cells with compound for 24 hours. • 5. After 24 hours, fixation and staining is carried out as follows: • 6. Dilute 37% formaldehyde in PBS to give a 12.95% solution by adding 3.5 mL formaldehyde to 6.5 mL of PBS. • 7. Add 50 μL of formaldehyde fixation solution directly to each well of cells (which already contain 125 μL medium). • 8. Incubate at room temp for 10 minutes. • 9. Remove fixative and add 100 μL/well PBS+0.1% Triton X-100 for 10 minutes. • 10. Aspirate and add 100 μL/well PBS+1% BSA. • 11. Aspirate and add 50 μL/well of primary antibody (anti-PH3 [1:2000]/anti-MPM2 [1:1000]) diluted in PBS+1% BSA. Incubate for 1 hour. • 12. Wash×2 with 100 μL/well PBS+1% BSA. • 13. Add 50 μL/well of secondary antibody plus Hoechst stain (anti-rabbit Alexafluor 488 [1:500]; anti-mouse Alexafluor 546 [1:500]+Hoechst 33342 [1:2500 final concentration=4 μg/mL])diluted in PBS+1% BSA. Incubate for 1 hour. • 14. Wash twice with 100 μL/well PBS+1% BSA. • 15. Aspirate and add 100 μL/well PBS. Plates can be stored at 4° C. in PBS for several weeks before scanning on the Cellomics Arrayscan. […] Scan on Cellomics using Target Activation Bioapplication. • 17. MI data emerging from the Cellomic Bioapplication can be used to plot MI versus compound concentration, and subsequently used to generate an EC50 value for each compound using an appropriate graphing/curve-fitting package such as GraphPad Prism.

[2] = system: HCT116 cells; assay: Effects on HCT116 colorectal cancer cell viability (cell titre blue, 72 hours); format: cell-based; details: Homo sapiens, HCT-116, HCT116 cell line
Procedure: Assay to Measure the Effects of Compounds of the Invention on HCT116 Colorectal Cancer Cell Viability
The following protocol was used to measure the effects of compounds of the invention on HCT116 cell viability.
1. HCT116 cells were grown in RPM11640 media supplemented with Glutamax and 10% FBS in a 37° C./5% CO2 incubator.
2. Growing culture of HCT116 cells were trypsinised, counted and diluted to give 10,000 cells/mL in an appropriate volume, allowing at least 6 mL of cells per plate.
3. 200 μL of PBS were added to all the outer wells of a flat-bottomed (8×12) 96-well TC plate. 100 μL of media were added only to wells in column 11 of the plates (these wells provided a blank for the cell titre blue assay). Two compounds were assayed on each plate.
4. 100 ul of 10,000 cells/mL HCT116s were plated in rows B-G of each plate.
5. The cells were incubated (37° C. 5% CO2) for 24 hours before treating with compounds.
6. An 8 mM compound stock in DMSO was prepared for all compounds to be tested. 2.5 μL of the compound stock was added to 1000 μL growth medium in a 96-well deep well block and serial dilutions were prepared across the plate by transferring 500 μL into wells containing 500 μL growth medium+0.25% DMSO to give eight concentrations of compound (this ensured a constant amount of DMSO at all concentrations of compound). When making up growth medium+DMSO, an amount of 5 ml was allowed per compound to be diluted.
7. 3 rows of cells were treated with 100 μL/well from each row on the dilution plate so that each cell plate is treated with a single compound. This gave a final volume in all wells of 200 μL and a titration of compound from a final concentration of 10 uM down to 78 nM.
8. The cells were incubated (37° C. 5% CO2) for 72 hours.
9. 5 ul cell titre blue reagent (Promega) were added to all wells except the edge wells (which contain PBS only) and incubated (37° C. 5% CO2) for 2.5-3 hours.
10. Fluorescence was measured on a suitable plate reader using a 530-570 nm filter set for excitation and a 580-620 nm filter set for fluorescence emission.
11. Data were analysed using an appropriate graphing package (such as GraphPad Prism). Data were expressed as the concentration of compound causing a 50% inhibition of cell viability or GI50.

| SMILES | % mitotic cells [1] [%] | pEC50 [1] | GI50 [2] [nM] |
| --- | --- | --- | --- |
| CN(C)CCNC(=O)c1cccc(-c2ccc(-c3ccccc3)n2-c2ccccc2C(F)(F)F)c1 [Example 3, hydrochloride] | 65 | 5.80 |  |
| CN(C)CCNC(=O)c1cccc(-c2ccc(-c3ccc(Br)cc3)n2-c2ccc(Cl)cc2C(F)(F)F)c1 [Example 4, hydrochloride] | 65 | 6.26 |  |
| CN(C)CCNC(=O)c1cccc(-c2ccc(-c3ccc(Br)cc3)n2-c2cnccc2C(F)(F)F)c1 [Example 6] | 86 | 6.18 | 200 |
| CN(C)Cc1cccc(-c2ccc(-c3ccc(Br)cc3)n2-c2ccccc2C(F)(F)F)c1 [Example 7, 1-[3-[5-(4-bromophenyl)-1-[2-(trifluoromethyl)phenyl]pyrrol-2-yl]phenyl]-N,N-dimethyl-methanamine Hydrochloride] | 75 | 5.66 | 1060 |
| CN1CCC(CNC(=O)c2cccc(-c3ccc(-c4ccc(Br)cc4)n3-c3ccccc3C(F)(F)F)c2)CC1 [Example 10] | 62 | 6.11 | 340 |
| CN1CCC(NC(=O)c2cccc(-c3ccc(-c4ccc(Br)cc4)n3-c3ccccc3C(F)(F)F)c2)CC1 [Example 11, hydrochloride] | 54 | 6.10 | 360 |
| CN(C)CCN(C)C(=O)c1cccc(-c2ccc(-c3ccc(Br)cc3)n2-c2ccccc2C(F)(F)F)c1 [Example 12, hydrochloride] | 62 | 6.10 | 290 |
| CN1CC[C@@H](NC(=O)c2cccc(-c3ccc(-c4ccc(Br)cc4)n3-c3ccccc3C(F)(F)F)c2)C1 [Example 13, hydrochloride] | 71 | 6.12 | 660 |
| CN1CCC(NC(=O)c2cccc(-c3ccc(-c4ccc(Br)cc4)n3-c3ccccc3C(F)(F)F)c2)C1 (stereo not drawn) [Example 14, hydrochloride] | 68 | 6.08 |  |
| CN(C)CCCOc1cccc(-c2ccc(-c3ccc(Br)cc3)n2-c2ccccc2C(F)(F)F)c1 [Example 17, 3-[3-[5-(4-Bromophenyl)-1-[2-(trifluoromethyl)phenyl]pyrrol-2-yl]phenoxy]-N,N-dimethyl-propan-1-amine Hydrochloride] | 65 | 5.84 |  |
| CN(C)CCNCc1cccc(-c2ccc(-c3ccc(Br)cc3)n2-c2ccccc2C(F)(F)F)c1 [Example 18, hydrochloride] | 67 | 5.79 |  |
| CC(C)c1ccc(-c2ccc(-c3cccc(C(=O)NCCN(C)C)c3)n2-c2ccccc2C(F)(F)F)cc1 [Example 22, hydrochloride] | 5 | < 5.00 | 2750 |
| COCCNC(=O)c1ccc(-c2ccc(-c3ccc(Cl)cc3)n2-c2ccccc2C(F)(F)F)cc1 [Example 86, 4-[5-(4-chlorophenyl)-1-[2-(trifluoromethyl)phenyl]pyrrol-2-yl]-N-(2-methoxyethyl)benzamide] |  |  | 340 |
| CN1CCN(CCNC(=O)c2ccc(-c3ccc(-c4ccc(Cl)cc4)n3-c3ccccc3C(F)(F)F)cc2)CC1 [Example 88, hydrochloride] |  |  | 250 |
| CN(C)CCNC(=O)c1ccc(-c2ccc(-c3ccc(Cl)cc3)n2-c2cnccc2C(F)(F)F)c(F)c1 [Example 89, hydrochloride] |  |  | 1360 |
| CN(C)CCNC(=O)Nc1ccc(-c2ccc(-c3ccc(Cl)cc3)n2-c2ccccc2C(F)(F)F)cc1 [Example 90, 1-[4-[5-(4-Chlorophenyl)-1-[2-(trifluoromethyl)phenyl]pyrrol-2-yl]phenyl]-3-[2-(dimethylamino)-ethyl]urea Hydrochloride] |  |  | 500 |

| SMILES | % mitotic cells [1] [%] | pEC50 [1] | GI50 [2] [nM] |
| --- | --- | --- | --- |
| CN(C)CCNC(=O)c1ccc(-c2onc(-c3ccc(Cl)cc3)c2-c2ccccc2C(F)(F)F)cc1 [Example 92, Hydrochloride] |  |  | 30 |
| CN(C)CCNC(=O)c1ccc(-c2[nH]nc(-c3ccc(Cl)cc3)c2-c2ccccc2C(F)(F)F)cc1 [Example 93, 4-[3-(4-chlorophenyl)-4-[2-(trifluoromethyl)phenyl]-1H-pyrazol-5-yl]-N-[2-(dimethylamino)ethyl] Benzamide Hydrochloride] |  |  | 260 |
| NCCNC(=O)c1ccc(-c2ccc(-c3ccc(Cl)cc3)n2-c2ccccc2C(F)(F)F)cc1 [Example 94, hydrochloride] |  |  | 50 |
| O=C(NCCN1CCOCC1)c1ccc(-c2ccc(-c3ccc(Cl)cc3)n2-c2ccccc2C(F)(F)F)cc1 [Example 95, hydrochloride] |  |  | 80 |
| O=C(NCCN[C@H]1CCOC1)c1ccc(-c2ccc(-c3ccc(Cl)cc3)n2-c2cnccc2C(F)(F)F)cc1 [Example 96] |  |  | 30 |
| CN(C)CCNC(=O)c1ccc(-c2ccc(-c3ccc(Cl)cc3)n2-c2ccc(F)cc2C(F)(F)F)cc1 [Example 97, hydrochloride] |  |  | 20 |
| CN(C)CCNC(=O)c1ccc(-c2ccc(-c3ccc(Cl)cc3)n2-c2ccc(Cl)cc2C(F)(F)F)cc1 [Example 98, hydrochloride] |  |  | 20 |
| CN(C)CCNC(=O)c1ccc(-c2ccc(-c3ccc(Cl)cc3)n2-c2ccccc2C(F)(F)F)s1 [Example 99, hydrochloride] |  |  | 40 |
| O=C(Cc1ccc(-c2ccc(-c3ccc(Cl)cc3)n2-c2ccccc2C(F)(F)F)cc1)NCCN1CCOCC1 [Example 100, hydrochloride] |  |  | 130 |
| O=C(Cc1ccc(-c2ccc(-c3ccc(Cl)cc3)n2-c2ccccc2C(F)(F)F)cc1)NCCN1CCNCC1 [Example 101, hydrochloride] |  |  | 60 |
| O=C(c1cccc(-c2ccc(-c3ccc(Br)cc3)n2-c2ccccc2C(F)(F)F)c1)N1CCC(Cc2cccnc2)CC1 [Example 102, hydrochloride] |  |  | 380 |
| C[C@@H](CNC(=O)c1ccc(-c2ccc(-c3ccc(Cl)cc3)n2-c2ccccc2C(F)(F)F)cc1)N(C)C [Example 103] |  |  | 40 |
| O=C(NCCN1CCOCC1)c1ccc(-n2ncc(-c3ccc(Cl)cc3)c2-c2ccccc2C(F)(F)F)cc1 [Example 104, hydrochloride] |  |  | 150 |
| CN(C)CCCNC(=O)c1ccc(-n2ncc(-c3ccc(Cl)cc3)c2-c2ccccc2C(F)(F)F)cc1 [Example 105, hydrochloride] |  |  | 100 |
| CN(C)CCNC(=O)c1ccc(-n2ncc(-c3ccc(F)cc3)c2-c2ccccc2C(F)(F)F)cc1 [Example 106, hydrochloride] |  |  | 80 |
| CN(C)CCNC(=O)C(C)(C)c1ccc(-c2ccc(-c3ccc(Cl)cc3)n2-c2ccccc2C(F)(F)F)cc1 [Example 107, hydrochloride] |  |  | 160 |
